Measured values published in BigSolDB 2.1.

CCOC(=O)OC1=C(c2cc(C)ccc2C)C(=O)NC12CCC(OC)CC2 (stereo unspecified)
solubility (mole fraction)
Conditions | 278.15 K | 283.15 K | 288.15 K | 293.15 K | 298.15 K | 303.15 K | 308.15 K | 313.15 K | 318.15 K
in acetone | 0.012 | 0.0151 | 0.0183 | 0.0221 | 0.0267 | 0.0323 | 0.0392 | 0.0472 | 0.0571
in ethanol | 0.00319 | 0.00386 | 0.00504 | 0.00624 | 0.008 | 0.0103 | 0.0132 | 0.0169 | 0.0219
in isopropanol | 0.00177 | 0.00232 | 0.0031 | 0.00415 | 0.00543 | 0.00711 | 0.00939 | 0.0125 | 0.0165
in methanol | 0.00534 | 0.00669 | 0.00803 | 0.01 | 0.0127 | 0.0159 | 0.0202 | 0.0257 | 0.0321
